We go through 1 molecule from patent US20260324636A1, “COMPOSITION FOR PROVIDING PLANT WITH STRESS RESISTANCE” (KIRIN HOLDINGS KABUSHIKI KAISHA, priority 2022, published 2026).

Assay [1] concerns OsZAT12. Nature of the assay: OsZAT12 gene expression by real-time PCR, Example 12. In kind it is in vivo, rice. To be noted: Oryza sativa; 0.5 mM in medium, 30° C. for 2 hours, aboveground part; read-out: OsZAT12 expression level, increase vs control. An excerpt:
In order to design primers for the target genes necessary for gene expression analysis by real-time PCR, homologs of Arabidopsis thaliana high-temperature-responsive genes in rice were searched for. The amino acid sequence of Arabidopsis thaliana ZAT12 (AGI code: AT5G59820) was obtained from TAIR (https://www.arabidopsis.org/), and the nucleotide sequence of the homolog was obtained using RAP-DB (https://rapdb.dna.affrc.go.jp/). As a reference gene, the nucleotide sequence of the homolog of Arabidopsis thaliana ACTIN2 (AGI code: AT3G18780) was also obtained. Homolog genes in rice were designated as OsZAT12 and OsACT1, respectively.
The materials as employed in Example 3 were used.
The method as employed in Example 3 was employed.
The rice samples subjected to germination for 3 days were inoculated into a liquid medium consisting of a ½ Murashige and Skoog Plant Salt Mixture. Specifically, a liquid medium was dispensed at 3 ml/well to a 12-well microplate (IWAKI), and 3 samples were transferred to each well. N-acetylglutamic acid was applied to each well to the final concentration of 0.5 mM in the medium, incubation was performed at 30° C. for 2 hours, and RNA was extracted from the aboveground part using the RNeasy Plant Mini Kit. […]
Thereafter, the relative expression level of the target gene upon N-acetylglutamic acid treatment was calculated by the ΔΔCt method.

Assay [2] concerns HAC12. Nature of the assay: HAC12 gene expression by real-time PCR, Example 15. Format: in vivo. To be noted: Arabidopsis thaliana; 0.1 mM in medium, 2 hours after application, 22° C.; read-out: HAC12 expression level, increase vs group not subjected to the treatment. On the procedure:
The materials as used in Example 14 were used.
A liquid medium containing a ½ Murashige and Skoog Plant Salt Mixture (Nacalai) and 1 (w/v) % sucrose (FUJIFILM Wako) was used as a growth medium.
Arabidopsis thaliana seeds were sterilized with the use of a Kitchen Haiter® liquid (Kao Corporation) diluted to one-half concentration with distilled water for 3 minutes, washed 3 times with sterile distilled water, and then incubated at 4° C. overnight. The growth medium was dispensed at 1 ml/well on a 12-well microplate (IWAKI), 5 grains of the seeds were inoculated in each well, and the plate was transferred to the incubator (TOMY) to initiate growing. The incubator was maintained at a temperature of 22° C. for a daily cycle of 16 hours light and 8 hours darkness.
N-acetylglutamic acid was applied to Arabidopsis thaliana 7 days after inoculation to the final concentration of 0.1 mM in the medium, followed by incubation for 2 hours or 6 hours. The incubator was maintained at a temperature of 22° C. for a daily cycle of 16 hours light and 8 hours darkness. After incubation, the samples were frozen with liquid nitrogen, and RNA was extracted using the RNeasy Plant Mini Kit […]. […]
Thereafter, the relative expression levels of the target genes upon N-acetylglutamic acid treatment were calculated by the ΔΔCt method using the Cp values obtained by real-time PCR.

The structures appear in SMILES notation.

For the molecule `CC(=O)N[C@@H](CCC(=O)O)C(=O)O` [N-acetylglutamic acid], in assay [1], the fold induction at 500 µM came out at 2.9. Also, in assay [2], the fold induction at 100 µM came to 1.3.
